Assay results as given in patent US12171755B2, “PAPD5 inhibitors and methods of use thereof” (Children's Medical Center Corporation, priority 2017, dated 2024).

Target: T1, PAPD5 (Homo sapiens, UniProt Q8NDF8)
T1 construct: made in house
Test: High-throughput luminescence (KinaseGlo) RNA polyadenylation assay, ATP utilization by recombinant PAPD5
Format: biochemical
Details: Table 4 (entries of Table 5), ratio of luminescence with inhibitor to DMSO; for Fold-change determined at compound concentration 33 μM: 33 μM compound; for Fold-change determined at compound concentration 100 μM: 100 μM compound, higher = higher inhibition
Protocol: Optimal conditions for an in vitro RNA polyadenylation assay using recombinant PAPD5, ATP and an oligonucleotide substrate were identified. The HTS assay involved ATP utilization by PAPD5, which reads out as a decreased luminescence signal produced by luciferase (KinaseGlo, Promega, Madison, WI).
100 nl of compound dissolved in DMSO was transferred to each well of the assay plate via pin transfer. For negative control wells, DMSO alone was added. Plates were gently vortexed for 5 seconds, then incubated for 2 hours at room temperature.
After 2 hours, 5 ul of luciferase (Promega KinaseGlo, Madison, WI) was added using a MultiDrop Combi (Thermo Fisher Scientific, Waltham, MA). The mixture was gently vortexed for 5 seconds and incubated for 10 minutes at room temperature. Plates were spun for 1 minute prior to luminescence measurements. Luminescent measurements were quantitated using a PerkinElmer EnVision™ plate reader.
˜100,000 compounds from various libraries at the ICCB-Longwood were screened in this manner in duplicate.
The fold change was the ratio of luminescence from a sample with inhibitor compared to that with DMSO. Thus, a higher number indicates higher inhibition.

T1 sequence (Q8NDF8 68-698 isoform Q8NDF8-5): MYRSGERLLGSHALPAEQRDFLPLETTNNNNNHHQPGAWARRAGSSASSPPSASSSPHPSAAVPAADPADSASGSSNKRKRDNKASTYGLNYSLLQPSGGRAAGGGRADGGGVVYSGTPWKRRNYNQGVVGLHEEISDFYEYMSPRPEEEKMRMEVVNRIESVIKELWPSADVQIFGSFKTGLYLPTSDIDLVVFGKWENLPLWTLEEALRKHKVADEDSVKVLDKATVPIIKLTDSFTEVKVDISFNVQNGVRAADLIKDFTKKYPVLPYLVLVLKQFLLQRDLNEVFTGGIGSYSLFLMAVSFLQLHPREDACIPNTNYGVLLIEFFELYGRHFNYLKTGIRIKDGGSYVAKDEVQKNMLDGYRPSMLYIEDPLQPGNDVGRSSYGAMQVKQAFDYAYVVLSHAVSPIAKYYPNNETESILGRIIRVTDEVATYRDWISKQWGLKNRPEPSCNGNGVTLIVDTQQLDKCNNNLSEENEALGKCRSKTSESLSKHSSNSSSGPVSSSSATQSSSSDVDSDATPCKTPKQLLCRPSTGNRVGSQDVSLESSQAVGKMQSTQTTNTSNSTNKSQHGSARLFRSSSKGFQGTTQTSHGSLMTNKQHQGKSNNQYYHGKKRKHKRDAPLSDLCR

Row | Fold-change determined at compound concentration 33 μM | Fold-change determined at compound concentration 100 μM | Compound
1 | 1.061 | 1.252 | Cc1cc(C)c2nc(C)cc(C(=O)O)c2c1 [Entry 85, 2,6,8-trimethylquinoline-4-carboxylic acid]
2 | 1.097 | 1.253 | COc1ccc(NC(=O)c2ccc3c(SCC(=O)O)c4c(nc3c2)CCC4)c(OC)c1 [Entry 87, 2-[[6-[(2,4-dimethoxyphenyl)carbamoyl]-2,3-dihydro-1H-cyclopenta[b]quinolin-9-yl]sulfanyl]acetic acid]
3 | 1.082 | 1.276 | COc1ccc(NC(=O)c2ccc3c(SCC(=O)O)c4c(nc3c2)CCCC4)c(OC)c1 [Entry 88, [(6-{[(2,4-dimethoxyphenyl)amino]carbonyl}-1,2,3,4-tetrahydroacridin-9-yl)thio]acetic acid]
4 | 1.098 | 1.211 | COCCNC(=O)CSc1c2c(nc3cc(Cl)ccc13)CCCC2 [Entry 89, 2-[(6-chloro-1,2,3,4-tetrahydroacridin-9-yl)sulfanyl]-N-(2-methoxyethyl)acetamide]
5 | 1.105 | 1.253 | CCCNC(=O)CSc1c2c(nc3ccc(Cl)cc13)CCCC2 [Entry 90, 2-[(7-chloro-1,2,3,4-tetrahydroacridin-9-yl)sulfanyl]-N-propylacetamide]
6 | 1.294 | 1.926 | Cc1ccc2cc(-c3noc(CCC(=O)Nc4nccs4)n3)c(O)nc2c1 [Entry 94, 3-[3-(2-hydroxy-7-methylquinolin-3-yl)-1,2,4-oxadiazol-5-yl]-N-1,3-thiazol-2-ylpropanamide]
7 | 1.156 | 1.228 | Cc1ccc(NC(=O)c2ccc3c(O)c(S(=O)(=O)c4ccc(Cl)cc4)c(=O)[nH]c3c2)cc1 [Entry 95, 3-(4-chlorophenyl)sulfonyl-4-hydroxy-N-(4-methylphenyl)-2-oxo-1H-quinoline-7-carboxamide]
8 | 1.184 | 1.23 | Cc1ccc(C)c(NC(=O)c2ccc3c(O)c(S(=O)(=O)c4ccc(Cl)cc4)c(O)nc3c2)c1 [Entry 96, (Z)-3-((4-chlorophenyl)sulfonyl)-N-(2,5-dimethylphenyl)-2,4-dihydroxyquinoline-7-carbimidic acid]
9 | 1.171 | 1.403 | O=C(CSc1nc(=O)c2ccccc2[nH]1)NCc1nc2ccccc2[nH]1 [Entry 97, N-(1H-benzimidazol-2-ylmethyl)-2-[(4-oxo-1H-quinazolin-2-yl)sulfanyl]acetamide]
10 | 1.97 | 2.765 | O=C(O)C1Nc2ccc(Cl)cc2C2C=CCC12 (centres unmarked) [Entry 98, 8-Chloro-3a,4,5,9b-tetrahydro-3H-cyclopenta[c]quinoline-4-carboxylic acid]
11 | 1.233 | 1.91 | COc1ccc(Br)cc1[C@@H]1Nc2ccc(C(=O)O)cc2[C@@H]2C=CC[C@@H]21 [Entry 99, (3aS,4R,9bR)-4-(5-bromo-2-methoxyphenyl)-3a,4,5,9b-tetrahydro-3H-cyclopenta[c]quinoline-8-carboxylic acid]
12 | 1.04 | 1.218 | CCn1cc(C(=O)O)c(=O)c2cc(F)c(N3CCN(C)CC3)cc21 [Entry 103, 1-ethyl-6-fluoro-7-(4-methylpiperazin-1-yl)-4-oxo-1,4-dihydroquinoline-3-carboxylic acid]
13 | 1.319 | 1.883 | Cc1ccc2c(=O)cc(CSc3ncn[nH]3)[nH]c2c1C [Entry 107, 7,8-dimethyl-2-(1H-1,2,4-triazol-5-ylsulfanylmethyl)-1H-quinolin-4-one]
14 | 1.076 | 1.231 | COc1ccc(OC)c(NC(=O)Cc2c(C(=O)O)[nH]c3ccc(Cl)cc23)c1 [Entry 109, 5-chloro-3-[2-(2,5-dimethoxyanilino)-2-oxoethyl]-1H-indole-2-carboxylic acid]
15 | 1.126 | 1.298 | CCc1ccccc1NC(=O)Cc1c(C(=O)O)[nH]c2ccc(Cl)cc12 [Entry 110, 5-chloro-3-[2-(2-ethylanilino)-2-oxoethyl]-1H-indole-2-carboxylic acid]
16 | 1.459 | 2.138 | Cc1ccc2c(=O)cc(C(=O)Nc3nnc(C)s3)oc2c1 [Entry 116, 7-methyl-N-(5-methyl-1,3,4-thiadiazol-2-yl)-4-oxo-4H-chromene-2-carboxamide]

Second part, the compound before the results:

Row | Compound | Fold-change determined at compound concentration 33 μM | Fold-change determined at compound concentration 100 μM
17 | Cc1ccc(-c2onc3ccc(-c4cc(C(=O)O)c5ccccc5n4)cc23)cc1 [Entry 84, 2-[3-(4-methylphenyl)-2,1-benzoxazol-5-yl]quinoline-4-carboxylic acid] | 1.12 | 1.568
18 | Cc1ccc2cccc(NC(=O)c3cccnc3)c2n1 [Entry 86, N-(2-methylquinolin-8-yl)nicotinamide] | 1.085 | 1.233
19 | COc1c2[nH]c3occc3c(OC)c-2ccc1=O [Entry 91, 4,8-dimethoxy-9H-furo[2,3-b]quinolin-7-one] | 1.197 | 1.537
20 | COc1c2ccoc2nc2c(OC)cccc12 [Entry 92, 4,8-dimethoxyfuro[2,3-b]quinoline] | 1.175 | 1.478
21 | COc1ccc(NS(=O)(=O)c2ccc3c(c2)[C@H]2C=CC[C@H]2[C@@H](c2ccc(C(=O)O)cc2)N3)cc1 [Entry 100, 4-[(3aR,4S,9bS)-8-[(4-methoxyphenyl)sulfamoyl]-3a,4,5,9b-tetrahydro-3H-cyclopenta[c]quinolin-4-yl]benzoic acid] | 1.315 | 2.297
22 | CCOc1cccc2c1N[C@@H](c1ccc(C(=O)O)cc1)[C@H]1CC=C[C@@H]21 [Entry 101, 4-[(3aS,4R,9bR)-6-ethoxy-3a,4,5,9b-tetrahydro-3H-cyclopenta[c]quinolin-4-yl]benzoic acid] | 1.265 | 2.042
23 | Cc1cc(C)c2c(=O)cc(CSc3nnc(-c4ccccc4)n3C)[nH]c2c1 [Entry 102, 5,7-dimethyl-2-[(4-methyl-5-phenyl-1,2,4-triazol-3-yl)sulfanylmethyl]-1H-quinolin-4-one] | 1.066 | 1.268
24 | O=c1c(S(=O)(=O)c2cccc(F)c2)c[nH]c2c(F)c(Cl)ccc12 [Entry 104, 7-chloro-8-fluoro-3-(3-fluorophenyl)sulfonyl-1H-quinolin-4-one] | 1.048 | 1.235
25 | O=c1c(S(=O)(=O)c2cccc(F)c2)c[nH]c2c(F)ccc(Cl)c12 [Entry 105, 5-chloro-8-fluoro-3-(3-fluorophenyl)sulfonyl-1H-quinolin-4-one] | 1.16 | 1.333
26 | Cc1cc(C)c2c(=O)cc(CSc3nnc(-c4cccc(F)c4)n3C)[nH]c2c1 [Entry 106, 2-[[5-(3-fluorophenyl)-4-methyl-1,2,4-triazol-3-yl]sulfanylmethyl]-5,7-dimethyl-1H-quinolin-4-one] | 1.218 | 1.522
27 | CN(C)S(=O)(=O)c1ccc2c(c1)c(C(=O)n1ccnc1)cn2C [Entry 108, 3-(I-Imidazole-1-carbonyl)-N,N,1-trimethylindole-5-sulfonamide] | 1.256 | 1.547
28 | Cc1nc[nH]c1CN1CCc2c(c3ccccc3n2C)C1=O [Entry 111, 5-methyl-2-((4-methyl-1H-imidazol-5-yl)methyl)-2,3,4,5-tetrahydro-1H-pyrido[4,3-b]indol-1-one] | 1.78 | 2.308
29 | CC1=NCCc2c1[nH]c1ccccc21 [Entry 113, 1-Methyl-4,9-dihydro-3H-beta-carboline] | 1.202 | 1.674
30 | COc1ccc2c(c1)[nH]c1c(C)nccc12 [Entry 114, 7-Methoxy-1-methyl-9H-pyrido[3,4-b]indole] | 1.1 | 1.342
31 | Cc1cc(C)c2c(=O)cc(C(=O)Nc3ccc(S(=O)(=O)Nc4onc(C)c4C)cc3)oc2c1 [Entry 115, N-[4-[(3,4-dimethyl-1,2-oxazol-5-yl)sulfamoyl]phenyl]-5,7-dimethyl-4-oxochromene-2-carboxamide] | 1.316 | 1.777
